Test results published in patent US11753446B2, “Beta-hairpin peptidomimetics” (POLYPHOR AG, priority 2014, dated 2023).
Where a SMILES comes first, the peptide text is derived from it. [ ]: non-standard residue; d: D form. Tle = CC(C)(C)[C@H](N)C(=O)O; dDab = NCC[C@@H](N)C(=O)O; Dab = NCC[C@H](N)C(=O)O; Dap = NC[C@H](N)C(=O)O

Key:
[1] = test system: Acinetobacter baumannii DSM 30008; format: cell-based; details: DSM 30008
How it was run: (§1)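 Peptide activity was tested by NCCLS broth microdilution with slight modifications. Bacteria were diluted in cation-adjusted Mueller-Hinton II broth to approximately 10^6 CFU/mL against a 0.5 McFarland standard. They were then exposed to two-fold serial peptide dilutions in broth containing 0.002% final polysorbate 80.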

[2] = test system: Escherichia coli ATCC 25922; format: cell-based; details: ATCC 25922
How it was run: as §1

[3] = test system: Klebsiella pneumoniae ATCC 13883; format: cell-based; details: ATCC 13883
How it was run: as §1

[4] = test system: human red blood cells (hRBC); test: Hemolysis: hemolytic activity at 100 μg/mL, 1 h at 37° C.; details: red cells of human, 1 h, 100
How it was run: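 Peptides at 100 μg/mL incubated with washed 20% (v/v) human erythrocytes (~0.9×10^9 cells/mL) for 1 h at 37 °C with shaking. Released hemoglobin read at OD 540 nm in supernatant; 0% and 100% lysis from PBS/0.001% acetic acid and 2.5% Triton X-100.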

SMILES	Acinetobacter baumannii DSM 30008 MIC [1] [µg/mL]	Escherichia coli ATCC 25922 MIC [2] [µg/mL]	Klebsiella pneumoniae ATCC 13883 MIC [3] [µg/mL]	Hemolysis at 100 μg/mL [4] [%]
CC(C)C[C@@H]1NC(=O)[C@H](CCCNC(=N)N)NC(=O)[C@@H](CCN)NC(=O)[C@H](C(C)C)NC(=O)[C@@H]2CSSC[C@H](NC1=O)C(=O)N[C@@H](Cc1ccc(O)cc1)C(=O)N[C@@H](CC(N)=O)C(=O)N[C@@H](CCCN)C(=O)N[C@H](CCN)C(=O)N[C@@H](CCN)C(=O)N[C@@H](Cc1c[nH]c3ccccc13)C(=O)N[C@@H](CC(N)=O)C(=O)N[C@@H](Cc1ccc(O)cc1)C(=O)N2 [Example 53, cyclo(-Leu-Cys-Tyr-Asn-Orn-^DDab-Dab-Trp-Asn-Tyr-Cys-Val-^DDab-Arg-)] (HELM PEPTIDE1{C.V.[NCC[C@@H](N[*:1])C(=O)[*:2]].R.L.C.Y.N.[Orn].[NCC[C@@H](N[*:1])C(=O)[*:2]].[Dab].W.N.Y}$PEPTIDE1,PEPTIDE1,1:R3-6:R3|PEPTIDE1,PEPTIDE1,1:R1-14:R2$$$V2.0)	1.5	1	1	1
CC(C)[C@@H]1NC(=O)[C@H](CCCNC(=N)N)NC(=O)[C@@H](CCN)NC(=O)[C@H](C(C)C)NC(=O)[C@@H]2CSSC[C@H](NC1=O)C(=O)N[C@@H](Cc1ccc(O)cc1)C(=O)N[C@@H](CC(N)=O)C(=O)N[C@@H](CCCN)C(=O)N[C@H](CCN)C(=O)N[C@@H](CCN)C(=O)N[C@@H](Cc1c[nH]c3ccccc13)C(=O)N[C@@H](CO)C(=O)N[C@@H](Cc1ccc(O)cc1)C(=O)N2 [Example 57, cyclo(-Val-Cys-Tyr-Asn-Orn-^DDab-Dab-Trp-Ser-Tyr-Cys-Val-^DDab-Arg-)] (HELM PEPTIDE1{C.V.[NCC[C@@H](N[*:1])C(=O)[*:2]].R.V.C.Y.N.[Orn].[NCC[C@@H](N[*:1])C(=O)[*:2]].[Dab].W.S.Y}$PEPTIDE1,PEPTIDE1,1:R3-6:R3|PEPTIDE1,PEPTIDE1,1:R1-14:R2$$$V2.0)	1.25	1	1.5	1
CC(C)C[C@@H]1NC(=O)[C@H](CCCNC(=N)N)NC(=O)[C@@H](CCN)NC(=O)[C@H](C(C)C)NC(=O)[C@@H]2CSSC[C@H](NC1=O)C(=O)N[C@@H](Cc1ccc(O)cc1)C(=O)N[C@@H](CO)C(=O)N[C@@H](CCCN)C(=O)N[C@H](CCN)C(=O)N[C@@H](CCN)C(=O)N[C@@H](Cc1c[nH]c3ccccc13)C(=O)N[C@@H](CC(N)=O)C(=O)N[C@@H](Cc1ccc(O)cc1)C(=O)N2 [Example 52, cyclo(-Leu-Cys-Tyr-Ser-Orn-^DDab-Dab-Trp-Asn-Tyr-Cys-Val-^DDab-Arg-)] (HELM PEPTIDE1{C.V.[NCC[C@@H](N[*:1])C(=O)[*:2]].R.L.C.Y.S.[Orn].[NCC[C@@H](N[*:1])C(=O)[*:2]].[Dab].W.N.Y}$PEPTIDE1,PEPTIDE1,1:R3-6:R3|PEPTIDE1,PEPTIDE1,1:R1-14:R2$$$V2.0)	1.25	0.75	1.5	1
CC(C)[C@@H]1NC(=O)[C@@H]2CCCN2C(=O)[C@@H](C)NC(=O)[C@H]([C@@H](C)O)NC(=O)[C@H](CO)NC(=O)[C@H](C(C)(C)C)NC(=O)[C@H](CCN)NC(=O)[C@H](Cc2c[nH]c3ccccc23)NC(=O)[C@H](CCN)NC(=O)[C@@H](CCN)NC(=O)[C@H](CCN)NC(=O)[C@H](CCN)NC(=O)[C@H](Cc2ccc(O)cc2)NC(=O)[C@H](CN)NC1=O [Example 46, cyclo(-Val-Dap-Tyr-Dab-Dab-^DDab-Dab-Trp-Dab-tBuGly-Ser-Thr-^DAla-Pro-)] (cyclo([Dab][Dab][dDab][Dab]W[Dab][Tle]ST[dA]PV[Dap]Y))	1	1	0.5	0
CC[C@H](C)[C@@H]1NC(=O)[C@H](CCCNC(=N)N)NC(=O)[C@@H](CCN)NC(=O)[C@H](Cc2ccc(O)cc2)NC(=O)[C@@H]2CSSC[C@H](NC1=O)C(=O)N[C@@H](Cc1ccc(O)cc1)C(=O)N[C@@H](CC(N)=O)C(=O)N[C@@H](CCCN)C(=O)N[C@H](CCN)C(=O)N[C@@H](CCN)C(=O)N[C@@H](CC(C)C)C(=O)N[C@@H](CO)C(=O)N[C@@H](C(C)C)C(=O)N2 [Example 5, cyclo(-Ile-Cys-Tyr-Asn-Orn-^DDab-Dab-Leu-Ser-Val-Cys-Tyr-^DDab-Arg-)] (HELM PEPTIDE1{C.Y.N.[Orn].[NCC[C@@H](N[*:1])C(=O)[*:2]].[Dab].L.S.V.C.Y.[NCC[C@@H](N[*:1])C(=O)[*:2]].R.I}$PEPTIDE1,PEPTIDE1,1:R3-10:R3|PEPTIDE1,PEPTIDE1,1:R1-14:R2$$$V2.0)	0.25	0.5	0.25	4
CC(C)C[C@@H]1NC(=O)[C@@H]2CCCN2C(=O)[C@@H](C)NC(=O)[C@H](CO)NC(=O)[C@@H]2CCNC(=O)C[C@H](NC1=O)C(=O)N[C@@H](Cc1ccc(O)cc1)C(=O)N[C@@H](CCN)C(=O)N[C@@H](CCCN)C(=O)N[C@H](CCN)C(=O)N[C@@H](CCN)C(=O)N[C@@H](Cc1c[nH]c3ccccc13)C(=O)N[C@@H](CCN)C(=O)N[C@@H](Cc1ccc(O)cc1)C(=O)N2 [Example 77, cyclo(-Leu-Asp-Tyr-Dab-Orn-^DDab-Dab-Trp-Dab-Tyr-Dab-Ser-^DAla-Pro-)] (HELM PEPTIDE1{L.D.Y.[Dab].[Orn].[NCC[C@@H](N[*:1])C(=O)[*:2]].[Dab].W.[Dab].Y.[Dab].S.[dA].P}$PEPTIDE1,PEPTIDE1,2:R3-11:R3|PEPTIDE1,PEPTIDE1,1:R1-14:R2$$$V2.0)	3	1.5	2	1
CC(C)C[C@@H]1NC(=O)[C@H](CCCNC(=N)N)NC(=O)[C@@H](CCN)NC(=O)[C@H](C(C)C)NC(=O)[C@@H]2CSSC[C@H](NC1=O)C(=O)N[C@@H](Cc1ccc(O)cc1)C(=O)N[C@@H](CC(N)=O)C(=O)N[C@@H](CCN)C(=O)N[C@H](CCN)C(=O)N[C@@H](CCN)C(=O)N[C@@H](Cc1c[nH]c3ccccc13)C(=O)N[C@@H](CO)C(=O)N[C@@H](Cc1ccc(O)cc1)C(=O)N2 [Example 56, cyclo(-Leu-Cys-Tyr-Asn-Dab-^DDab-Dab-Trp-Ser-Tyr-Cys-Val-^DDab-Arg-)] (HELM PEPTIDE1{C.V.[NCC[C@@H](N[*:1])C(=O)[*:2]].R.L.C.Y.N.[Dab].[NCC[C@@H](N[*:1])C(=O)[*:2]].[Dab].W.S.Y}$PEPTIDE1,PEPTIDE1,1:R3-6:R3|PEPTIDE1,PEPTIDE1,1:R1-14:R2$$$V2.0)	0.625	1	1	1
CC(C)C[C@@H]1NC(=O)[C@H](CCCNC(=N)N)NC(=O)[C@@H](CCN)NC(=O)[C@H]([C@@H](C)O)NC(=O)[C@@H]2CSSC[C@H](NC1=O)C(=O)N[C@@H](Cc1ccc(O)cc1)C(=O)N[C@@H](CC(N)=O)C(=O)N[C@@H](CCCN)C(=O)N[C@H](CCN)C(=O)N[C@@H](CCN)C(=O)N[C@@H](Cc1c[nH]c3ccccc13)C(=O)N[C@@H](CO)C(=O)N[C@@H](Cc1ccc(O)cc1)C(=O)N2 [Example 74, cyclo(-Leu-Cys-Tyr-Asn-Orn-^DDab-Dab-Trp-Ser-Tyr-Cys-Thr-^DDab-Arg-)] (HELM PEPTIDE1{C.T.[NCC[C@@H](N[*:1])C(=O)[*:2]].R.L.C.Y.N.[Orn].[NCC[C@@H](N[*:1])C(=O)[*:2]].[Dab].W.S.Y}$PEPTIDE1,PEPTIDE1,1:R3-6:R3|PEPTIDE1,PEPTIDE1,1:R1-14:R2$$$V2.0)	1.5	4	1	1
CC(C)C[C@@H]1NC(=O)[C@H](CCCNC(=N)N)NC(=O)[C@@H](C)NC(=O)[C@H](C(C)C)NC(=O)[C@@H]2CSSC[C@H](NC1=O)C(=O)N[C@@H](Cc1ccc(O)cc1)C(=O)N[C@@H](CC(N)=O)C(=O)N[C@@H](CCCN)C(=O)N[C@H](CCN)C(=O)N[C@@H](CCN)C(=O)N[C@@H](Cc1c[nH]c3ccccc13)C(=O)N[C@@H](CCN)C(=O)N[C@@H](Cc1ccc(O)cc1)C(=O)N2 [Example 79, cyclo(-Leu-Cys-Tyr-Asn-Orn-^DDab-Dab-Trp-Dab-Tyr-Cys-Val-^DAla-Arg-)] (HELM PEPTIDE1{C.V.[dA].R.L.C.Y.N.[Orn].[NCC[C@@H](N[*:1])C(=O)[*:2]].[Dab].W.[Dab].Y}$PEPTIDE1,PEPTIDE1,1:R3-6:R3|PEPTIDE1,PEPTIDE1,1:R1-14:R2$$$V2.0)	1.5	1	1	1
CC(C)C[C@@H]1NC(=O)[C@H](CCCNC(=N)N)NC(=O)[C@@H](CCN)NC(=O)[C@H](C(C)C)NC(=O)[C@@H]2CSSC[C@H](NC1=O)C(=O)N[C@@H](C(C)C)C(=O)N[C@@H](C(C)C)C(=O)N[C@@H](CCCN)C(=O)N[C@H](CCN)C(=O)N[C@@H](CCN)C(=O)N[C@@H](Cc1c[nH]c3ccccc13)C(=O)N[C@@H](Cc1ccc(O)cc1)C(=O)N[C@@H](Cc1ccc(O)cc1)C(=O)N2 [Example 20, cyclo(-Leu-Cys-Val-Val-Orn-^DDab-Dab-Trp-Tyr-Tyr-Cys-Val-^DDab-Arg-)] (HELM PEPTIDE1{C.V.V.[Orn].[NCC[C@@H](N[*:1])C(=O)[*:2]].[Dab].W.Y.Y.C.V.[NCC[C@@H](N[*:1])C(=O)[*:2]].R.L}$PEPTIDE1,PEPTIDE1,1:R3-10:R3|PEPTIDE1,PEPTIDE1,1:R1-14:R2$$$V2.0)	0.25	1	1	7
